Measured values as given in the supplement of paper PMC11208160.

Assay: recombinant UMI read abundance after kanamycin selection (control-corrected) (log10(CPM+1)); higher = more efficient recombination; extreme values may be limits of the assay; sequences stand for … in AGTGCAGAGAAAATCGGCCAGTTTTCTCTGCCTGCAGTCCGCATGCCGTGGGACCCCTTGGGTTCTAACCTGTTGCCTAGATTTATGCAGCGGACTGCCTTTCTCCCAAAGTGATAAACCGG…AGGTTGGTTTCACT; site = the 11-nt donor
Procedure, shortened: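 In Escherichia coli, a pool of donor and donor-binding-loop pairs, each with a 12-nt UMI, was tested for the IS621 bridge recombinase. Plating was on IPTG (0.07 mM) plus kanamycin, or without selection, in two replicates. Recombinant UMIs were amplified by PCR across the donor–target junction and sequenced, and counts were reported as log10(CPM+1) after averaging and control-derived scaling.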
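Note: IS621 bridge recombinase in Escherichia coli cells against a fixed T5 target plasmid.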

Point of comparison: “CGATTATCATGGACCGGTTTTCCCGGTAATCCGTATTTGAC (site CTAGTATCTGT)”, “recombinant UMI read abundance (log10)” value 1.07. Against it:
- CGATCGCCATGGACCGGTTTTCCCGGTAATCCGTATTTGTT (site CGATCGTCTAA) — higher, 1.46
- CGATCGTCATGGACCGGTTTTCCCGGTAATCCGTATTTGCT (site CGATCATCTAG) — higher, 2.15
- CGATCGTCATGGACCGGTTTTCCCGGTAATCCGTATTTGCT (site CGATCCTCTAG) — lower, 0
- CGATCGTCATGGACCGGTTTTCCCGGTAATCCGTATTTGCT (site CGATCGTCTAG) — higher, 2.46
- CGATCGTCATGGACCGGTTTTCCCGGTAATCCGTATTTGCT (site CGATCTTCTAG) — lower, 0
- CGATCTACATGGACCGGTTTTCCCGGTAATCCGTATTTGTT (site CGATCAACTAA) — lower, 0.012
- CGATCTACATGGACCGGTTTTCCCGGTAATCCGTATTTGTT (site CGATCCACTAA) — lower, 0.0103
- CGATCTACATGGACCGGTTTTCCCGGTAATCCGTATTTGTT (site CGATCGACTAA) — lower, 0.00912
- CGATCTACATGGACCGGTTTTCCCGGTAATCCGTATTTGTT (site CGATCTACTAA) — lower, 0.246
- CGATCTGCATGGACCGGTTTTCCCGGTAATCCGTATTTGCT (site CGATCATCTAG) — lower, 0
- CGATCTGCATGGACCGGTTTTCCCGGTAATCCGTATTTGCT (site CGATCTGCTAG) — higher, 1.72
- CGATGACCATGGACCGGTTTTCCCGGTAATCCGTATTTGCT (site CGATCATCTAG) — lower, 0
- CGATGACCATGGACCGGTTTTCCCGGTAATCCGTATTTGCT (site CGATGACCTAG) — lower, 0
- CGATGATCATGGACCGGTTTTCCCGGTAATCCGTATTTGAA (site CGATGATCTTT) — higher, 2.86
- CGATTAGCATGGACCGGTTTTCCCGGTAATCCGTATTTGCT (site CGATCATCTAG) — lower, 0
- CGATTAGCATGGACCGGTTTTCCCGGTAATCCGTATTTGCT (site CGATTAGCTAG) — lower, 0
- CGATTATCATGGACCGGTTTTCCCGGTAATCCGTATTTGAC (site CGATTATCTGT) — higher, 1.98
- CGATTATCATGGACCGGTTTTCCCGGTAATCCGTATTTGCA (site CGATCATCTAG) — lower, 0
- CGATTATCATGGACCGGTTTTCCCGGTAATCCGTATTTGCA (site CGATTATCTTG) — higher, 2.39
- CGATTATCATGGACCGGTTTTCCCGGTAATCCGTATTTGTT (site CGATCATCTAG) — lower, 0
- CGATTATCATGGACCGGTTTTCCCGGTAATCCGTATTTGTT (site CGATTATCTAA) — higher, 2.45
- CGATTTACATGGACCGGTTTTCCCGGTAATCCGTATTTGCT (site CGATTTACTAG) — higher, 1.76
- CGCAATCCATGGACCGGTTTTCCCGGTAATCCGTATTTGAG (site CGCAATCCTCT) — within 0.2 log units, 0.964
- CGCACATCATGGACCGGTTTTCCCGGTAATCCGTATTTGCT (site CGAACATCTAG) — lower, 0
- CGCACATCATGGACCGGTTTTCCCGGTAATCCGTATTTGCT (site CGCACATCTAG) — within 0.2 log units, 1.02
- CGCACATCATGGACCGGTTTTCCCGGTAATCCGTATTTGCT (site CGGACATCTAG) — lower, 0
- CGCACATCATGGACCGGTTTTCCCGGTAATCCGTATTTGCT (site CGTACATCTAG) — lower, 0
- CGCACTCCATGGACCGGTTTTCCCGGTAATCCGTATTTGTT (site CGCACTCCTAA) — lower, 0.808
- CGCACTCCATGGACCGGTTTTCCCGGTAATCCGTATTTGTT (site CGGAATCCTAA) — lower, 0
- CGCATCACATGGACCGGTTTTCCCGGTAATCCGTATTTGCC (site CGCATCACTGG) — higher, 1.78
- CGCATCTCATGGACCGGTTTTCCCGGTAATCCGTATTTGTG (site CGCATCTCTCA) — higher, 1.83
- CGCATGCCATGGACCGGTTTTCCCGGTAATCCGTATTTGCA (site CGCATGCCTTG) — lower, 0.808
- CGCCACACATGGACCGGTTTTCCCGGTAATCCGTATTTGTA (site CACCACACTTA) — lower, 0.727
- CGCCACACATGGACCGGTTTTCCCGGTAATCCGTATTTGTA (site CCCCACACTTA) — lower, 0.261
- CGCCACACATGGACCGGTTTTCCCGGTAATCCGTATTTGTA (site CGCCACACTTA) — higher, 1.95
- CGCCACACATGGACCGGTTTTCCCGGTAATCCGTATTTGTA (site CTCCACACTTA) — lower, 0.241
- CGCCATACATGGACCGGTTTTCCCGGTAATCCGTATTTGCT (site CGCCATACTAG) — higher, 1.64
